Data published in patent US20080171766A1, “Novel Method” (SMITHKLINE BEECHAM CORPORATION, priority 2005, published 2008).
In brackets after ≈: the same amount, converted by molar mass.

Tests used:
[1] = tested on: S. aureus Linezolid resistant; experiment: MIC by broth microdilution, linezolid resistant S. aureus; format: cell-based, Staphylococcus aureus; details: S. aureus (3 isolates) Linezolid resistant
Procedure: (§1) Whole-cell antimicrobial activity was determined by broth microdilution. Test compounds were dissolved in DMSO and diluted 1:10 in water to produce a 64 mcg/ml stock solution. Using a 96 well microtitre plate, a Microlab AT Plus 2 (Hamilton Co., Reno, Nev.) serially diluted 50 ul of the stock solution into an appropriate broth medium. Staphylococcal isolates were tested using cation adjusted Mueller Hinton broth. For S. pneumonaie testing, the Mueller Hinton broth was supplemented with 5% lysed horse blood and H. influenzae was tested with Haemophilus Test Medium. After the compounds were diluted, a 50 ul aliquot of the test isolate (˜1×10^6 cfu/ml) prepared in normal saline was added to each well of the microtitre plate. The final test concentrations ranged from 0.016-16 ug/mL. Inoculated plates were incubated at 35 °C in ambient air for 18 to 24 hours. The minimum inhibitory concentration (MIC) was determined as the lowest concentration of compound that inhibited visible growth.

[2] = tested on: S. aureus VISA (vancomycin intermediate Staphylococcus aureus); experiment: MIC by broth microdilution, VISA; format: cell-based
Procedure: as §1

[3] = tested on: H. influenzae ClarR (clarithromycin resistant); experiment: MIC by broth microdilution, H. influenzae ClarR; format: cell-based; details: H. influenzae (5 isolates) ClarR; Compound A n = 3
Procedure: as §1

[4] = tested on: H. influenzae BLNAR (beta lactamase negative ampicillin resistant); experiment: MIC by broth microdilution, H. influenzae BLNAR; format: cell-based; details: H. influenzae (5 isolates) BLNAR; Compound A n = 4
Procedure: as §1

[5] = tested on: S. aureus MRSA&Mup^r (methicillin resistant & mupirocin resistant Staphylococcus aureus); experiment: MIC by broth microdilution, MRSA&Mup^r; format: cell-based; details: S. aureus MRSA&Mup^r (14 isolates); not all isolates tested against fusidic acid
Procedure: as §1

[6] = tested on: S. aureus Fusidic acid^r (fusidic acid resistant); experiment: MIC by broth microdilution, fusidic acid resistant S. aureus; format: cell-based, Staphylococcus aureus; details: S. aureus Fusidic acid^r (6 isolates)
Procedure: as §1

[7] = tested on: S. aureus MRSA (methicillin resistant Staphylococcus aureus); experiment: MIC by broth microdilution, MRSA; format: cell-based; details: S. aureus MRSA (61 isolates); not all isolates tested against fusidic acid
Procedure: as §1

[8] = tested on: S. aureus Macrolide^r (macrolide resistant); experiment: MIC by broth microdilution, macrolide resistant S. aureus; format: cell-based, Staphylococcus aureus; details: S. aureus Macrolide^r (69 isolates); not all isolates tested against fusidic acid
Procedure: as §1

[9] = tested on: S. aureus Mupirocin^r (mupirocin resistant); experiment: MIC by broth microdilution, mupirocin resistant S. aureus; format: cell-based, Staphylococcus aureus; details: S. aureus Mupirocin^r (32 isolates); not all isolates tested against fusidic acid
Procedure: as §1

[10] = S. aureus (4 isolates) VISA (vanc. MIC 4), second part of table
[11] = S. aureus VISA (6 isolates), first part of table

| SMILES | MIC Range [1] [µg/mL] | MIC Range [2, 10] [µg/mL] | MIC Range [3] [µg/mL] | MIC Range [4] [µg/mL] | MIC Range [5] [µg/mL] | MIC Range [6] [µg/mL] | MIC Range [7] [µg/mL] | MIC Range [8] [µg/mL] | MIC Range [2, 11] [µg/mL] | MIC Range [9] [µg/mL] |
| --- | --- | --- | --- | --- | --- | --- | --- | --- | --- | --- |
| CO/N=C(\C(=O)N[C@@H]1C(=O)N2C(C(=O)O)=C(COC(N)=O)CS[C@H]12)c1ccco1 [Cefuroxime] | >16 | >16 | 0.5 to 1 | 8 to 16 | – | – | – | – | – | – |
| CC(=O)O[C@H]1C[C@@]2(C)[C@@H](C[C@@H](O)[C@H]3[C@@]4(C)CC[C@@H](O)[C@@H](C)[C@@H]4CC[C@@]32C)/C1=C(\CCC=C(C)C)C(=O)O [Fusidic acid] | – | – | – | – | 0.12 to 0.5 | >16 | 0.12 to 1 | 0.12 to 1 | – | – |
| CC[C@H]1OC(=O)[C@H](C)C(=O)[C@H](C)[C@@H](O[C@@H]2O[C@H](C)C[C@H](N(C)C)[C@H]2O)[C@](C)(OC)C[C@@H](C)C(=O)[C@H](C)[C@H]2N(CCCCn3cnc(-c4cccnc4)c3)C(=O)O[C@]12C [Telithromycin] | 0.03 to 0.06 | – | – | 1 (≈ 1.23 µM) | – | – | – | – | – | – |
| C/C(=C\C(=O)OCCCCCCCCC(=O)O)C[C@@H]1OC[C@H](C[C@@H]2O[C@H]2[C@@H](C)[C@H](C)O)[C@@H](O)[C@H]1O [Mupirocin] | – | – | – | – | – | – | – | – | <1 | – |
| C[C@H]1COc2c(N3CCN(C)CC3)c(F)cc3c(=O)c(C(=O)O)cn1c23 [Levofloxacin] | 16 (≈ 44.3 µM) | 8 to 64 | <0.016 | <0.016 | – | – | – | – | – | – |
| CC1(C)S[C@@H]2[C@H](NC(=O)[C@H](N)c3ccc(O)cc3)C(=O)N2[C@H]1C(=O)O [Amoxicillin] | >32 | 8 to 32 | – | 4 to 16 | – | – | – | – | – | – |
| C=C[C@]1(C)C[C@@H](OC(=O)CSC2CC3CCC(C2)N3C)[C@]2(C)C(C)CC[C@]3(CCC(=O)[C@H]32)[C@@H](C)[C@@H]1O (stereo partly drawn) [Compound A, mutilin 14-(exo-8-methyl-8azabicyclo[3.2.1]oct-3-ylsulfanyl)-acetate] | 1 to 2 | 0.06 to 1 | 0.12 to 0.25 | 2 to 4 | <0.016 to 0.12 | <0.016 to 0.03 | <0.016 to 0.5 | 0.03 to 0.5 | <0.06 to 1 | <0.016 to 0.5 |
| CC[C@H]1OC(=O)[C@H](C)[C@@H](O[C@H]2C[C@@](C)(OC)[C@@H](O)[C@H](C)O2)[C@H](C)[C@@H](O[C@@H]2O[C@H](C)C[C@H](N(C)C)[C@H]2O)[C@](C)(O)C[C@@H](C)CN(C)[C@H](C)[C@@H](O)[C@]1(C)O [Azithromycin] | 0.5 (≈ 0.668 µM) | – | – | 1 to 2 | – | – | – | – | – | – |
